From ChEMBL document CHEMBL1201862, “PubChem BioAssay data set” (2004)
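Where inhibition never reached the appropriate level, the endpoint shown equals the highest concentration tested. Otherwise, values were interpolated linearly from a five-concentration, 48-hour dose response in 96-well plates. Here, GI50 denotes the concentration required for 50% inhibition of growth.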 Activity calls are given as the source filed them. Cut-off read from the data, not from the text of the source: active = GI50 up to about 1.1 µM and inactive = higher.

How the values were obtained:
Test in all cases: NCI anticancer screen, dose series, 48 h
786-0 = test system: 786-0
A498 = test system: A498
A549 = test system: A549
ACHN = test system: ACHN
BT-549 = test system: BT-549
CCRF-CEM = test system: CCRF-CEM
COLO 205 = test system: COLO 205
DU-145 = test system: DU-145
EKVX = test system: EKVX
HCC 2998 = test system: HCC 2998
HCT-116 = test system: HCT-116
HCT-15 = test system: HCT-15
HL-60 = test system: HL-60
HOP-62 = test system: HOP-62
HOP-92 = test system: HOP-92
HT-29 = test system: HT-29
Hs-578T = test system: Hs-578T
IGROV-1 = test system: IGROV-1
K562 = test system: K562
KM12 = test system: KM12
LOX IMVI = test system: LOX IMVI
M14 = test system: M14
MCF7 = test system: MCF7
MDA-MB-231 = test system: MDA-MB-231
MDA-MB-435 = test system: MDA-MB-435
MDA-N = test system: MDA-N
MOLT-4 = test system: MOLT-4
Malme-3M = test system: Malme-3M
NCI-H226 = test system: NCI-H226
NCI-H23 = test system: NCI-H23
NCI-H460 = test system: NCI-H460
NCI-H522 = test system: NCI-H522
NCI/ADR-RES = test system: NCI/ADR-RES
OVCAR-3 = test system: OVCAR-3
OVCAR-4 = test system: OVCAR-4
OVCAR-5 = test system: OVCAR-5
OVCAR-8 = test system: OVCAR-8
PC-3 = test system: PC-3
RPMI-8226 = test system: RPMI-8226
SF-268 = test system: SF-268
SF-295 = test system: SF-295
SF-539 = test system: SF-539
SK-MEL-28 = test system: SK-MEL-28
SK-MEL-2 = test system: SK-MEL-2
SK-MEL-5 = test system: SK-MEL-5
SK-OV-3 = test system: SK-OV-3
SN12C = test system: SN12C
SNB-19 = test system: SNB-19
SNB-75 = test system: SNB-75
SR = test system: SR
SW-620 = test system: SW-620
T47D = test system: T47D
TK-10 = test system: TK-10
U-251 = test system: U-251
UACC-257 = test system: UACC-257
UACC-62 = test system: UACC-62
UO-31 = test system: UO-31
CAKI-1 = test system: CAKI-1
RXF 393 = test system: RXF 393

CC12CC1C(c1cccc([N+](=O)[O-])c1)(c1cccc([N+](=O)[O-])c1)N=N2 (stereo not drawn)
GI50 (786-0): 20.7 µM (inactive)
GI50 (A498): 4.28 µM (inactive)
GI50 (A549): 54.7 µM (inactive)
GI50 (ACHN): 15.8 µM (inactive)
GI50 (BT-549): 18.5 µM (inactive)
GI50 (CCRF-CEM): 3.36 µM (inactive)
GI50 (COLO 205): 21.6 µM (inactive)
GI50 (DU-145): 24.3 µM (inactive)
GI50 (EKVX): 37.7 µM (inactive)
GI50 (HCC 2998): 34.5 µM (inactive)
GI50 (HCT-116): 15.8 µM (inactive)
GI50 (HCT-15): 20.4 µM
GI50 (HL-60): 13 µM (inactive)
GI50 (HOP-62): > 100 µM (inactive)
GI50 (HOP-92): 14.1 µM (inactive)
GI50 (HT-29): 28 µM (inactive)
GI50 (Hs-578T): 21.9 µM (inactive)
GI50 (IGROV-1): 20.3 µM (inactive)
GI50 (K562): 29.9 µM (inactive)
GI50 (KM12): 19.6 µM (inactive)
GI50 (LOX IMVI): 13.2 µM (inactive)
GI50 (M14): 38.9 µM (inactive)
GI50 (MCF7): 35.6 µM (inactive)
GI50 (MDA-MB-231): 16.5 µM (inactive)
GI50 (MDA-MB-435): 36.5 µM (inactive)
GI50 (MDA-N): 23.2 µM (inactive)
GI50 (MOLT-4): 28.3 µM (inactive)
GI50 (Malme-3M): 18.2 µM (inactive)
GI50 (NCI-H226): 25.3 µM (inactive)
GI50 (NCI-H23): 19.1 µM (inactive)
GI50 (NCI-H460): 27.4 µM (inactive)
GI50 (NCI-H522): 6.7 µM (inactive)
GI50 (NCI/ADR-RES): 22.9 µM (inactive)
GI50 (OVCAR-3): 27.4 µM (inactive)
GI50 (OVCAR-4): 23.1 µM (inactive)
GI50 (OVCAR-5): 53.3 µM (inactive)
GI50 (OVCAR-8): 25.1 µM (inactive)
GI50 (PC-3): 25 µM (inactive)
GI50 (RPMI-8226): 2.96 µM (inactive)
GI50 (SF-268): 27.7 µM (inactive)
GI50 (SF-295): 57 µM (inactive)
GI50 (SF-539): 25.5 µM (inactive)
GI50 (SK-MEL-28): 22.1 µM (inactive)
GI50 (SK-MEL-2): 44.7 µM (inactive)
GI50 (SK-MEL-5): 26.8 µM (inactive)
GI50 (SK-OV-3): > 100 µM (inactive)
GI50 (SN12C): 25.6 µM (inactive)
GI50 (SNB-19): 32.5 µM (inactive)
GI50 (SNB-75): 24.6 µM (inactive)
GI50 (SR): 19.6 µM (inactive)
GI50 (SW-620): 23.2 µM (inactive)
GI50 (T47D): 25.8 µM (inactive)
GI50 (TK-10): 27.8 µM (inactive)
GI50 (U-251): 18.7 µM (inactive)
GI50 (UACC-257): 28.1 µM (inactive)
GI50 (UACC-62): 15.9 µM (inactive)
GI50 (UO-31): 10.8 µM (inactive)

CN(C)Cc1cc(C(=O)/C=C/c2ccc(Cl)cc2)cc(CN(C)C)c1O
GI50 (786-0): 5.93 µM (inactive)
GI50 (A498): 12.7 µM (inactive)
GI50 (A549): 8.73 µM (inactive)
GI50 (ACHN): 4.04 µM (inactive)
GI50 (BT-549): 3.7 µM (inactive)
GI50 (CAKI-1): 6.05 µM (inactive)
GI50 (CCRF-CEM): 14.4 µM (inactive)
GI50 (COLO 205): 4.27 µM (inactive)
GI50 (DU-145): 12.1 µM (inactive)
GI50 (EKVX): 12.8 µM (inactive)
GI50 (HCC 2998): 18.7 µM (inactive)
GI50 (HCT-116): 12.9 µM (inactive)
GI50 (HCT-15): 15.9 µM
GI50 (HL-60): 2.86 µM (inactive)
GI50 (HOP-62): 4.36 µM (inactive)
GI50 (HT-29): 5.6 µM (inactive)
GI50 (Hs-578T): 17.5 µM (inactive)
GI50 (IGROV-1): 12.5 µM (inactive)
GI50 (K562): 5.41 µM (inactive)
GI50 (KM12): 4.17 µM (inactive)
GI50 (LOX IMVI): 4.43 µM (inactive)
GI50 (MCF7): 14.4 µM (inactive)
GI50 (MDA-MB-231): 11.4 µM (inactive)
GI50 (MDA-MB-435): 13.7 µM (inactive)
GI50 (MDA-N): 10.4 µM (inactive)
GI50 (MOLT-4): 16.3 µM (inactive)
GI50 (Malme-3M): 11.7 µM (inactive)
GI50 (NCI-H226): 22 µM (inactive)
GI50 (NCI-H23): 15.7 µM (inactive)
GI50 (NCI-H460): 10.1 µM (inactive)
GI50 (NCI-H522): 3.24 µM (inactive)
GI50 (NCI/ADR-RES): 15.8 µM (inactive)
GI50 (OVCAR-3): 3.06 µM (inactive)
GI50 (OVCAR-5): 24.2 µM (inactive)
GI50 (OVCAR-8): 7.59 µM (inactive)
GI50 (PC-3): 10.8 µM (inactive)
GI50 (RPMI-8226): 7.89 µM (inactive)
GI50 (RXF 393): 10.9 µM (inactive)
GI50 (SF-268): 18.2 µM (inactive)
GI50 (SF-295): 13.3 µM (inactive)
GI50 (SF-539): 19.3 µM (inactive)
GI50 (SK-MEL-28): 13.4 µM (inactive)
GI50 (SK-MEL-5): 11.4 µM (inactive)
GI50 (SN12C): 10.8 µM (inactive)
GI50 (SNB-19): 8.75 µM (inactive)
GI50 (SNB-75): 8.75 µM (inactive)
GI50 (SR): 11.1 µM (inactive)
GI50 (SW-620): 6.65 µM (inactive)
GI50 (T47D): 27 µM (inactive)
GI50 (TK-10): 18.4 µM (inactive)
GI50 (U-251): 13.4 µM (inactive)
GI50 (UACC-257): 15.6 µM (inactive)
GI50 (UO-31): 7.4 µM (inactive)

O=C1CSC(c2ccccc2[N+](=O)[O-])N1c1ccc(-c2ccc(-n3c(-c4ccccc4)nc4ccccc4c3=O)cc2)cc1 (stereo not drawn)
GI50 (786-0): > 100 µM (inactive)
GI50 (A498): > 100 µM (inactive)
GI50 (A549): > 100 µM (inactive)
GI50 (ACHN): > 100 µM (inactive)
GI50 (BT-549): > 100 µM (inactive)
GI50 (CAKI-1): > 100 µM (inactive)
GI50 (CCRF-CEM): 46.2 µM (inactive)
GI50 (COLO 205): > 100 µM (inactive)
GI50 (DU-145): > 100 µM (inactive)
GI50 (EKVX): > 100 µM (inactive)
GI50 (HCC 2998): > 100 µM (inactive)
GI50 (HCT-116): 82.6 µM (inactive)
GI50 (HCT-15): 74.3 µM
GI50 (HL-60): > 100 µM (inactive)
GI50 (HOP-62): > 100 µM (inactive)
GI50 (HOP-92): 46.6 µM (inactive)
GI50 (HT-29): 62.2 µM (inactive)
GI50 (Hs-578T): > 100 µM (inactive)
GI50 (IGROV-1): 57.1 µM (inactive)
GI50 (K562): 67.3 µM (inactive)
GI50 (KM12): 80 µM (inactive)
GI50 (LOX IMVI): 54 µM (inactive)
GI50 (M14): > 100 µM (inactive)
GI50 (MCF7): 80.5 µM (inactive)
GI50 (MDA-MB-231): > 100 µM (inactive)
GI50 (MDA-MB-435): > 100 µM (inactive)
GI50 (MDA-N): > 100 µM (inactive)
GI50 (MOLT-4): 43.2 µM (inactive)
GI50 (Malme-3M): > 100 µM (inactive)
GI50 (NCI-H226): > 100 µM (inactive)
GI50 (NCI-H23): > 10 µM (inactive)
GI50 (NCI-H460): > 100 µM (inactive)
GI50 (NCI-H522): > 100 µM (inactive)
GI50 (NCI/ADR-RES): 86.5 µM (inactive)
GI50 (OVCAR-3): > 100 µM (inactive)
GI50 (OVCAR-4): 75.5 µM (inactive)
GI50 (OVCAR-5): 71.3 µM (inactive)
GI50 (OVCAR-8): > 100 µM (inactive)
GI50 (PC-3): > 100 µM (inactive)
GI50 (RPMI-8226): 90.2 µM (inactive)
GI50 (SF-268): 45.8 µM (inactive)
GI50 (SF-295): > 100 µM (inactive)
GI50 (SF-539): 58.6 µM (inactive)
GI50 (SK-MEL-28): > 100 µM (inactive)
GI50 (SK-MEL-2): > 100 µM (inactive)
GI50 (SK-MEL-5): 42 µM (inactive)
GI50 (SK-OV-3): > 100 µM (inactive)
GI50 (SN12C): > 100 µM (inactive)
GI50 (SNB-19): > 100 µM (inactive)
GI50 (SNB-75): 18.4 µM (inactive)
GI50 (SR): 44.6 µM (inactive)
GI50 (SW-620): 36.4 µM (inactive)
GI50 (T47D): 29.1 µM (inactive)
GI50 (TK-10): > 100 µM (inactive)
GI50 (U-251): 42.6 µM (inactive)
GI50 (UACC-257): > 100 µM (inactive)
GI50 (UACC-62): 36.6 µM (inactive)
GI50 (UO-31): 29.9 µM (inactive)
